Assay results reported in US20230312577A1, “DUAL KINASE-BROMODOMAIN INHIBITORS” (MONASH UNIVERSITY, priority 2020, published 2023).

Columns and labels:
Eμ-Myc lymphoma cells = test: In vivo tumour burden from a single dose, Eμ-Myc lymphoma; parameters: species or system mouse
Method: (§1) B6.SJL-PtprcPepc/BoyJ (B6.CD45.1) mice were inoculated via tail vein injection with 5×10^5 Eμ-Myc lymphoma cells and left untreated for 12-14 days. A single injection of Cpd 010 at 35-45 mg/kg, or vehicle control (30% HPBCD) was administered. Half of the mice (n=6) were harvested 6 h post injection while the other half (n=6) were harvested 16 h later. Assessment of tumour burden was carried out on single cell suspension of harvested lymph nodes, spleen and blood by flow cytometry using antibodies as above. PD-L1 MFI was assessed by flow cytometry in harvested LNs using anti-mouse PD-L1-PE (ThermoFisher Scientific, clone MIH5) or isotype control antibodies (Mouse IgG2b PE, #559529). Harvested LNs were also washed in PBS and lysates were collected using Laemmli Buffer (AlfaAeser #J61337). They were processed as per our Western Blot protocol (see above) before they were probed for primary pAKT antibodies. Spleen size and weights were also measured between the treatment groups.

[1] = tested on: panel of human multiple myeloma cell lines; test: Apoptosis assay (TMRE, flow cytometry); assay type: cell-based; settings: 48 h
Method: A panel of human multiple myeloma cell lines (3×10^5) was incubated in the presence of Cpd 010 or DMSO vehicle control with indicated concentrations for 48 h before flow cytometric analysis of viability using Tetramethylrhodamine ethylester (TMRE) stains. Further apoptotic assay using only OPM2 cells was carried out using Cpd 010 or DMSO with TMRE stains.

OPM2 cells [2] = test: Synergy between PI3K and BET inhibitors, apoptosis assay (TMRE) and synergy score; assay type: cell-based, human
Method: An apoptosis assay using TMRE stain by flow cytometry was performed in OPM2 cells with indicated compounds. […] Using Synergyfinder web application (https://synergyfinder.fimm.fi), synergy score was calculated. Zero Interaction Potency (ZIP) reference models was utilised.

MYC gene = test: RT-qPCR in OPM2 cells; assay type: cell-based, human; settings: 2 h
Method: OPM2 cells (1×10^6) were treated with Cpd 010 or DMSO vehicle at indicated concentrations for 2 h. RNA was extracted from cell pellets using the PureLink™ RNA Mini Kit (ThermoFisher Scientific, #121839025) as per the manufacturer's instructions. cDNA was syn thesised with the SuperScript™ III cDNA synthesis kit (ThermoFisher Scientific, #18080093) according to the manufacturer's instructions. Quantitative PCR analysis of samples was per formed on the QuantStudio7 Flex RT-PCR system (ThermoFisher) with SYBR™ Master Mix (ThermoFisher Scientific, #4472903). L32 were used as the human control gene. Primer se quences were: Homo sapiens MYC F: […] R: […], Homo sapiens L32 F: […] R: TTGTGAGCGATCTCGGCAC. Each RT-qPCR am plification was performed in triplicate (technical triplicates) and repeated 2 times (biological replicates).

BRD4 = BRD4 (Homo sapiens, UniProt O60885); test: Chromatin immunoprecipitation and sequencing analysis in OPM2 cells; assay type: cell-based; parameters: endogenous in cells; host or cells: OPM2; settings: 250 nM, 2 h
Method: OPM2 cells (4×10^6) were treated with 250 nM of Cpd 010 or DMSO control for 2 h. Cells were cross-linked, and nuclei were lysed to achieve a mean DNA fragment size of 300-500 bp. Immunoprecipitation was performed using protein A/G magnetic beads for at least 12 h at 4° C. using the following antibodies: anti-BRD4 anti-H3K27Ac, anti-RNA polymerase II. Reverse crosslinking of DNA was performed, and DNA was purified using QIAquick PCR purification kit. The KAPA Hyper Prep Kit was used to generate libraries as per the manufacturer's instruction, which sequenced on the NextSeq (Illumina; 75 bp SE).

OPM2 cells [3] = test: Cell proliferation assay (ViaLight, cellular ATP); assay type: cell-based; settings: Homo sapiens, OPM-2, 120 h, 5 days, 5 μM to 1 nM
Method in brief: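 1×10^3 cells per well exposed to compounds at final 5 μM to 1 nM for 5 days. Viability read as cellular ATP by ViaLight luminescence, technical triplicates. GI50 computed from the dose–response.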

[4] = tested on: PD-L1 and pAKT (PI3K substrate); test: In vivo target engagement from a single dose (PD-L1, pAKT), Eμ-Myc lymphoma; parameters: species or system mouse; settings: single dose 35-45 mg/kg
Method: as §1
In terms of target engagement, PD-L1 expression in the tumour cells were measured in the harvested LN and spleen. As expression of the Myc transgene in Eμ-Myc is not BET-de pendent, MYC cannot be measured as a read-out of BET inhibition, therefore PD-L1 was used as an indicator for BET inhibition. […] Similarly, pAKT (PI3K substrate) was suppressed by Cpd 010 in the lysates made from harvested LN.

MYC target genes = test: RNA-Seq and Gene Set Enrichment Analysis (GSEA) in OPM2 cells; assay type: cell-based, human; settings: 250 nM, 2 h
Method: OPM2 cells (4×10^6) were treated with 250 nM of Cpd 010 or DMSO vehicle for 2 h. Cells pellets were collected, and RNA was extracted using the Nucleospin RNA extraction kit (Macherey-Nagel) as per the manufacturer's instructions. The QuantSeq 30 mRNA-seq Library Prep Kit for Illumina (Lexogen) was used to generate libraries as per the manufacturer's instructions, which were sequenced on the NextSeq (Illumina; 75 bp SE). GSEA2-2.2.2 was used for identification of enriched signatures obtained from the MSigDB Hallmarks datasets (Liber-zon et al., 2015). Samples were prepared in technical triplicates.

## CC(=O)N1c2ccc(-c3ccc(CNC(=O)c4cn5cc(-c6cnc(N)nc6)nc(N6CCOCC6)c5n4)cc3)cc2CC[C@@H]1C [Cpd 010, (S)-N-(4-(1-acetyl-2-methyl-1,2,3,4-tetrahydroquinolin-6-yl)benzyl)-6-(2-aminopyrimidin-5-yl)-8-morpholinoimidazo[1,2-a]pyrazine-2-carboxamide]
Eμ-Myc lymphoma cells; single dose 35-45 mg/kg
  size of the spleen: significantly reduced
Eμ-Myc lymphoma cells; single injection 35-45 mg/kg, 16 h
  number of tumour cells in peripheral blood and harvested spleen: marked reduction in number of tumour cells in peripheral blood and harvested spleen
[1]; U266 express MYCN instead of c-MYC
  relative sensitivity of the cell lines: OPM2 cells were the most sensitive and U266 was the least sensitive
[1]; six cell lines
  induction of apoptosis in multiple myeloma cell lines: induced dose-dependent apoptosis in five of the six treated cells
OPM2 cells [2]
  induction of apoptosis: even more enhanced apoptosis compared to the combination of two drugs together
MYC gene
  MYC mRNA level: significant decrease in MYC mRNA level
BRD4
  BRD4 and RNA Pol II at MYC locus: significant reduction in BRD4 and RNA Pol II
  displacement of BRD4 from chromatin: robust displace ment of BRD4
OPM2 cells [3]
  GI50: ≤ 0.1 µM
[4]; harvested LN
  PD-L1 expression in tumour cells (indicator for BET inhibition): significantly reduced
[4]; lysates from harvested LN
  pAKT (PI3K substrate): suppressed
MYC target genes
  gene set enrichment: enrichment against MYC target genes with a trend toward MTORC1 signaling genes
